Experimental data as given in patent US20080070938A1, “Medicinal composition for mitigating blood lipid or lowering blood homocysteine” (SANKYO COMPANY, LIMITED, priority 2002, published 2008).

Tests used:
Male Beagle dogs [1] = experiment: Test Example 1: serum lipids (total cholesterol, LDL, triglyceride) after 11 days of oral dosing; format: in vivo; conditions: oral once daily, Pyridoxine hydrochloride 50 mg/Kg, relative value, pre-treatment average = 100, mean of 5 dogs
Method: Pravastatin sodium manufactured at Sankyo Co., Ltd. was used. Simvastatin and atorvastatin synthesized at Chemtech Labo., Inc. were used.
The administration period was 11 days.
Approximately 10 mL of blood was collected from the cephalic vein of each dog on -14 and -7 day (the 1st and the 2nd week prior to administration) as well as 4, 8, and 12 days after administration.
The collected blood was placed in a test tube and allowed to stand at room temperature for 30 min to 1 hour. Then the blood was centrifuged (approximately 1,600 g, for 10 min) and the resultant serum obtained was used for assays.
Total cholesterol content was assayed by enzymatic assay method, while HDL, LDL, and triglyceride were determined by homogeneous method, chemically modified method, and enzymatic techniques, respectively. Clinical Laboratory System (TBA-120FR, Toshiba Medical Systems Corporation) was used in all of these determinations.
Relative values of various levels of serum lipids in animals treated with each dose of pyridoxine hydrochloride, pravastatin sodium, simvastatin, or atorvastatin calcium alone as well as the medicinal compositions described above were calculated against each converted average value calculated from that determined 2 weeks and 1 week before the treatment into 100.

Male Beagle dogs [2] = experiment: Test Example 2: blood homocysteine levels (HPLC) after 11 days of oral dosing; conditions: oral once daily, relative value, pre-treatment average = 100, mean of 5 dogs
From the text: The required amount of the test substance calculated based on the body weight of the test animals was weighed and put in gelatin capsules (TORPAC Inc., ½ oz). After filling up, the capsules were placed in a box divided up for every animal and stored under freezing until use.
The capsules filled up with the test substance were orally administered to the test animals once daily via an oral gavage between 9:00-12:30. The test animals were fasted for 2-3 hrs prior to each administration. The administration period was 11 days.
Approximately 10 mL of blood was collected from the cephalic vein of each dog on -14 and -7 day (the 1st and the 2nd week prior to administration) as well as 4, 8, and 12 days after administration. The animals were fasted for approximately 18 hrs before collection of the blood.
Blood homocysteine levels were determined by HPLC method used conventionally in current clinical examination.
Relative values of blood homocysteine levels in animals treated with each dose of atorvastatin calcium or pyridoxine hydrochloride alone as well as the medicinal compositions of atorvastatin calcium plus pyridoxine hydrochloride were calculated against each converted average value calculated from that determined 2 weeks and 1 week before the treatment into 100.
The values indicate average results calculated from 5 dogs per a group.

[3] = test system: patients with cardiovascular diseases; conditions: 6 successive weeks; patients with cardiovascular diseases (3 atorvastatin, 4 simvastatin); cited from earlier work
patients = conditions: treated for one year; 20,705 patients; placebo control group 1.9% decrease; cited from earlier work
[4] = 4 Days after treatment, Atorvastatin calcium 2 mg/Kg
[5] = 4 Days after treatment, Pravastatin sodium 2 mg/Kg
[6] = 4 Days after treatment, Simvastatin 1 mg/Kg
[7] = 8 Days after treatment, Atorvastatin calcium 2 mg/Kg
[8] = 8 Days after treatment, Pravastatin sodium 2 mg/Kg
[9] = 8 Days after treatment, Simvastatin 1 mg/Kg
[10] = 12 Days after treatment, Atorvastatin calcium 2 mg/Kg
[11] = 12 Days after treatment, Pravastatin sodium 2 mg/Kg
[12] = 12 Days after treatment, Simvastatin 1 mg/Kg
[13] = 4 Days after treatment, Atorvastatin calcium 2 mg/Kg and/or Pyridoxine hydrochloride 5 mg/Kg
[14] = 8 Days after treatment, Atorvastatin calcium 2 mg/Kg and/or Pyridoxine hydrochloride 5 mg/Kg
[15] = 12 Days after treatment, Atorvastatin calcium 2 mg/Kg and/or Pyridoxine hydrochloride 5 mg/Kg

Structure (SMILES)	Percent changes of blood LDL levels (Male Beagle dogs [1]; [4]) [%]	Percent changes of blood triglyceride levels (Male Beagle dogs [1]; [4]) [%]	Percent changes of blood LDL levels (Male Beagle dogs [1]; [5]) [%]	Percent changes of blood LDL levels (Male Beagle dogs [1]; [6]) [%]	Percent changes of blood total cholesterol levels (Male Beagle dogs [1]; [6]) [%]	Percent changes of blood triglyceride levels (Male Beagle dogs [1]; [6]) [%]	Percent changes of blood LDL levels (Male Beagle dogs [1]; [7]) [%]	Percent changes of blood triglyceride levels (Male Beagle dogs [1]; [7]) [%]	Percent changes of blood LDL levels (Male Beagle dogs [1]; [8]) [%]	Percent changes of blood LDL levels (Male Beagle dogs [1]; [9]) [%]	Percent changes of blood total cholesterol levels (Male Beagle dogs [1]; [9]) [%]	Percent changes of blood triglyceride levels (Male Beagle dogs [1]; [9]) [%]	Percent changes of blood LDL levels (Male Beagle dogs [1]; [10]) [%]	Percent changes of blood triglyceride levels (Male Beagle dogs [1]; [10]) [%]	Percent changes of blood LDL levels (Male Beagle dogs [1]; [11]) [%]	Percent changes of blood LDL levels (Male Beagle dogs [1]; [12]) [%]	Percent changes of blood total cholesterol levels (Male Beagle dogs [1]; [12]) [%]	Percent changes of blood triglyceride levels (Male Beagle dogs [1]; [12]) [%]	Percent changes of blood homocysteine levels (Male Beagle dogs [2]; [13]) [%]	Percent changes of blood homocysteine levels (Male Beagle dogs [2]; [14]) [%]	further results
Cc1ncc(CO)c(CO)c1O.Cl [Pyridoxine hydrochloride]	101.7	83.8	101.7	101.7	98.0	83.8	95.0	86.7	95.0	95.0	93.3	86.7	91.4	81.2	91.4	91.4	90.5	81.2	100.0	116.0	Percent changes of blood homocysteine levels (Male Beagle dogs [2]; 4 Days after treatment, Pyridoxine hydrochloride 50 mg/Kg alone or with Atorvastatin calcium 2 mg/Kg): 101.4%; Percent changes of blood homocysteine levels (Male Beagle dogs [2]; 8 Days after treatment, Pyridoxine hydrochloride 50 mg/Kg alone or with Atorvastatin calcium 2 mg/Kg): 111.5%; Percent changes of blood homocysteine levels (Male Beagle dogs [2]; [15]): 109.8%; Percent changes of blood homocysteine levels (Male Beagle dogs [2]; 12 Days after treatment, Pyridoxine hydrochloride 50 mg/Kg alone or with Atorvastatin calcium 2 mg/Kg): 103.0%
CC(C)c1c(C(=O)Nc2ccccc2)c(-c2ccccc2)c(-c2ccc(F)cc2)n1CC[C@H](O)C[C@@H](O)CC(=O)O [Atorvastatin calcium, (3R,5S)-7-[2-(4-fluorophenyl)-5-(1-methylethyl)-3-phenyl-4-phenylaminocarbonyl-1H-pyrrol-1-yl]-3,5-dihydroxyheptanoic acid]	82.4	77.2					82.1	86.3					83.6	86.4					107.2	106.3	Percent changes of blood homocysteine levels (Male Beagle dogs [2]; [15]): 106.9%
CC[C@H](C)C(=O)O[C@H]1C[C@H](O)C=C2C=C[C@H](C)[C@H](CC[C@@H](O)C[C@@H](O)CC(=O)O)[C@H]21 [Pravastatin sodium, (+)-(3R,5R)-3,5-dihydroxy-7-[(1S,2S,6S,8S,8aR)-6-hydroxy-2-methyl-8-[(S)-2-methylbutyryloxy]-1,2,6,7,8,8a-hexahydro-1-naphtyl]heptanoic acid]			92.6						91.6						90.4						
CC(C)c1c(C(=O)Nc2ccccc2)c(-c2ccccc2)c(-c2ccc(F)cc2)n1CC[C@H](O)C[C@@H](O)CC(=O)O [atorvastatin, (3R,5S)-7-[2-(4-fluorophenyl)-5-(1-methylethyl)-3-phenyl-4-phenylaminocarbonyl-1H-pyrrol-1-yl]-3,5-dihydroxyheptanoic acid]																					blood homocysteine levels (in words) [3]: increased
CC[C@H](C)C(=O)O[C@H]1C[C@@H](C)C=C2C=C[C@H](C)[C@H](CC[C@@H]3C[C@@H](O)CC(=O)O3)[C@H]21 [lovastatin, (+)-(1S,3R,7S,8S,8aR)-1,2,3,7,8,8a-hexahydro-3,7-dimethyl-8-[2-[(2R,4R)-tetrahydro-4-hydroxy-6-oxo-2H-pyran-2-yl]ethyl]-1-naphth yl(S)-2-methylbutyrate]																					decrease of blood homocysteine levels on average (patients): 3.7%
CCC(C)(C)C(=O)O[C@H]1C[C@@H](C)C=C2C=C[C@H](C)[C@H](CC[C@@H]3C[C@@H](O)CC(=O)O3)[C@H]21 [Simvastatin, (+)-(1S,3R,7S,8S,8aR)-1,2,3,7,8,8a-hexahydro-3,7-dimethyl-8-[2-[(2R,4R)-tetrahydro-4-hydroxy-6-oxo-2H-pyran-2-yl]ethyl]-1-naphthyl 2,2-dimethylbutyrate]				83.9	94.8	66.4				90.4	94.1	85.3				81.3	92.4	82.0			blood homocysteine levels (in words) [3]: decreased
